Source: patent publication US9415011B1, “Method for treatment of liver cancer and inhibition of metastasis with CXC-chemokine-receptor 4-targeted nanoparticle” (National Tsing Hua University, priority 2015, dated 2016)
Values belong to the compound of their own block, whether it stands above or below them.

Experiments:
[1] = In vivo pharmacokinetics of C6 in blood; set-up: species or system C3H mice; conditions: 2 mg/kg, mice with orthotopic HCA-1 tumor
Experimental: To examine the pharmacokinetics profile in vivo, firstly, C6-loaded lipid-coated PLGA nanoparticle without AMD3100 modification (DOP-C6) and C6-loaded AMD3100-modified lipid-coated PLGA nanoparticle (ADOP-C6) were prepared according to the method set forth above. Then, C3H mice with orthotopic HCA-1 tumor were administered with free C6, DOP-C6 and ADOP-C6 at a dosage of 2 mg/kg. 40 μl of blood was collected from the tail artery and mixed with 10 μL of EDTA (50 mM) at different periods of time. The fluorescence intensity was measured by the plate reader (Fluoroskan Ascent FL, Thermo Scientific) at an excitation wavelength of 485 nm and an emission wavelength of 538 nm C6 concentration was normalized and calculated from a standard curve obtained by spiking known amounts of free C6 or C6-loaded nanoparticles in blood obtained from uninjected mice.

JHH-7 cells [2] = test: Cell viability under sorafenib with recombinant SDF1α; type: cell-based, human; conditions: JHH-7, in the presence of sorafenib
From the text: (§1) To examine cell viability, cells without any treatment were defined as Negative control group, while cells treated with free sorafenib alone were defined as Positive control group. Meanwhile, cells treated with sorafenib in the presence of recombinant SDF1α were defined as Comparative group 1, while cells treated with free sorafenib and free AMD3100 were defined as Comparative group 2. Regarding the experimental groups, cells treated with sorafenib-loaded lipid-coated nanoparticle without AMD3100 modification were defined as Experimental group 1, while cells treated with sorafenib-loaded AMD3100-modified lipid-coated nanoparticle were defined as Experimental group 2.
(§2) To determine whether the SDF1α/CXCR4 axis mediates HCC resistance to sorafenib treatment, both murine HCC (HCA-1) and human HCC (JHH-7) cell lines were firstly exposed to recombinant SDF1α in the presence of sorafenib.

HCA-1 cells [3] = test: as above; type: cell-based, murine; conditions: HCA-1, in the presence of sorafenib
From the text: as §1, §2

orthotopic HCA-1 tumor [4] = test: Syngeneic orthotopic murine HCC model, sorafenib and AMD3100-modified nanoparticle; type: in vivo, C3H mice; conditions: sorafenib 50 mg/kg daily for 14 days
From the text: 4 to 6-week-old male C3H/HeNCrNarl mice (weight: 25 g) were purchased from National Laboratory Animal Center (Taipei, Taiwan). In order to create hepatocellular carcinoma model, every mouse was orthotopically injected with HCA-1 cells (10^6 cells per mouse) in liver.
On the other hand, HCA-1 cells were intrahepatic ally implanted into C3H mice to establish a syngeneic orthotopic murine HCC model. For evaluation of mean vessel density (MVD) and hypoxic induction, mice without any treatment were defined as Negative control group, while mice treated with free sorafenib alone were defined as Positive control group. Mice treated with free sorafenib and free AMD3100 were defined as Comparative. For the experimental groups, mice treated with AMD3100-modified lipid-coated nanoparticle of the present invention were defined as Experimental group 1, while mice treated with sorafenib and AMD3100-modified lipid-coated nanoparticle of the present invention together were defined as Experimental group 2.
After HCC tumors were established, mice were treated according to the above mentioned Positive control group, Comparative group, Experimental group 1, and Experimental group 2 with sorafenib given at a dose of 50 mg/kg daily for 14 days. […] On the other hand, the change in SDF1α expression as a consequence of treatment-induced hypoxia was examined.

VEGF [5] = test: VEGF expression by western blot; type: cell-based, human; conditions: JHH-7
From the text: (§3) Firstly, cells treated with free control siRNA were defined as Control group, while cells treated with free anti-VEGF siRNA were defined as Comparative group. Cells treated with anti-VEGF siRNA-loaded lipid-coated nanoparticle without AMD3100 modification were defined as Experimental group 1, while cells treated with anti-VEGF siRNA-loaded AMD3100-modified lipid-coated nanoparticle were defined as Experimental group 2.

VEGF [6] = test: VEGF expression by western blot; type: cell-based, murine; conditions: HCA-1
From the text: as §3

orthotopic HCA-1 tumor [7] = test: In vivo tumor uptake of fluorescence-labeled siRNA; set-up: species or system mice; conditions: intravenous injection, after 4 hours
Experimental: Next, the uptake of the fluorescence-labeled siRNA in orthotopic HCA-1 tumor models via intravenous injection was evaluated after 4 hours.

HCA-1 cells [8] = test: In vitro cytotoxicity, MTT assay; type: cell-based, murine; conditions: HCA-1, 48 hours, sorafenib 0.25 μM, AMD3100 0.2 μM
Experimental: (§4) For cytotoxicity examination of the CXCR4-targeted lipid-coated PLGA nanoparticle of the present invention, HCA-1 or JHH-7 cells were seeded in 96-well transparent plates (Costar, Ill., USA) at a density of 1000 cells/well in a medium and were incubated for 12 hours. After confluency reached 10%, the medium was replaced with RPMI-1640 media containing DOPSor, ADOPSor, free DOPA, ADOP, or DOPSor with free AMD3100 at the equivalent sorafenib concentration of 0.25 μM. […] All cells were incubated for 48 hours. After incubation for another 3 hours, MTT assay was utilized to subsequently measure the cell viability. The absorbance of the wells was measured by Multiskan (Thermo, USA) at 570 nm and background absorbance was subtracted from all data. The percentage of cell viability was calculated by normalization of all values to the control group.

JHH-7 cells [9] = test: In vitro cytotoxicity, MTT assay; type: cell-based, human; conditions: JHH-7, 48 hours, sorafenib 0.25 μM, AMD3100 0.2 μM
Experimental: as §4

C6 in blood after 4 hours [1]: almost cleared out after 4 hours
Compound: CCN(CC)c1ccc2cc(-c3nc4ccccc4s3)c(=O)oc2c1 [free C6, coumarin 6]
C6 in blood after 1 hour [1]: cleared rapidly from the blood after 1 hour

Compound: SDF1α
cell viability (JHH-7 cells [2]): increased the viability
cell viability (HCA-1 cells [3]): increased the viability

Compound: CNC(=O)c1cc(Oc2ccc(NC(=O)Nc3ccc(Cl)c(C(F)(F)F)c3)cc2)ccn1 [sorafenib, Sorafenib]
carbonic anhydrase IX (CAIX) expression (hypoxia) (orthotopic HCA-1 tumor [4]): increase of carbonic anhydrase IX (CAIX) expression
increase in SDF1α expression in HCA-1 tumor tissues (orthotopic HCA-1 tumor [4]): 3 fold
increase in number of F4/80+ macrophages (orthotopic HCA-1 tumor [4]): over 3 fold
lung metastasis (orthotopic HCA-1 tumor [4]): Neither the Positive control group nor the Comparative group showed a reduction in metastasis formation
mean vessel density (MVD) (orthotopic HCA-1 tumor [4]): significant reduction of MVD
tumor growth (orthotopic HCA-1 tumor [4]): moderate tumor growth inhibitory effect

Compound: free anti-VEGF siRNA: anti-VEGF siRNA with sequence 5′-AUGUGAAUGCAGACCAAAGAA-3′ (chemistry not given here)
VEGF expression (VEGF [5]): no suppression of VEGF expression
VEGF expression (VEGF [6]): no suppression of VEGF expression
uptake of fluorescence-labeled siRNA in orthotopic HCA-1 tumor (orthotopic HCA-1 tumor [7]): intracellular uptake can hardly be detected

Compound: c1cc(CN2CCCNCCNCCCNCC2)ccc1CN1CCCNCCNCCCNCC1 [AMD3100]
cytotoxicity / cell viability (HCA-1 cells [8]): did not have a cytotoxic effect
cytotoxicity / cell viability (JHH-7 cells [9]): did not have a cytotoxic effect
